In ChEMBL document CHEMBL3390836, “Mannich- and LedererManasse-based analogues of the natural product S-(+)-curcuphenol as cancer proliferation and migration inhibitors” (Medchemcomm, 2012):

Experiments:
Assay type in all cases: functional
[1] = Cytotoxicity against human OVCAR3 cells assessed as cell growth at 10^-8 M after 48 hrs by SRB assay relative to control; conditions: OVCAR-3, 48 h, read-out: Activity
[2] = Cytotoxicity against human HCT116 cells assessed as cell growth at 10^-7 M after 48 hrs by SRB assay relative to control; conditions: HCT-116, 48 h, read-out: Activity
[3] = tested on: NCI-H23; assay: Cytotoxicity against human NCI-H23 cells assessed as cell growth at 10^-8 M after 48 hrs by SRB assay relative to control; conditions: NCI-H23, 48 h, read-out: Activity
[4] = tested on: NCI-H23; assay: Cytotoxicity against human NCI-H23 cells assessed as cell growth at 10^-4 M after 48 hrs by SRB assay relative to control; conditions: NCI-H23, 48 h, read-out: Activity
[5] = tested on: IGROV-1; assay: Cytotoxicity against human IGROV1 cells assessed as cell growth at 10^-4 M after 48 hrs by SRB assay relative to control; conditions: IGROV-1, 48 h, read-out: Activity
[6] = tested on: A549; assay: Cytotoxicity against human A549 cells after 48 hrs by SRB assay; conditions: A549, 48 h
[7] = tested on: SK-MEL-5; assay: Cytotoxicity against human SK-MEL-5 cells assessed as cell growth at 10^-8 M after 48 hrs by SRB assay relative to control; conditions: SK-MEL-5, 48 h, read-out: Activity
[8] = tested on: HT-29; assay: Cytotoxicity against human HT-29 cells assessed as cell growth at 10^-8 M after 48 hrs by SRB assay relative to control; conditions: HT-29, 48 h, read-out: Activity
[9] = Cytotoxicity against human OVCAR5 cells assessed as cell growth at 10^-7 M after 48 hrs by SRB assay relative to control; conditions: OVCAR-5, 48 h, read-out: Activity
[10] = tested on: MDA-MB-435; assay: Cytotoxicity against human MDA-MB-435 cells assessed as cell growth at 10^-4 M after 48 hrs by SRB assay relative to control; conditions: MDA-MB-435, 48 h, read-out: Activity
[11] = Cytotoxicity against human HCT116 cells assessed as cell growth at 10^-8 M after 48 hrs by SRB assay relative to control; conditions: HCT-116, 48 h, read-out: Activity
[12] = tested on: SW-620; assay: Cytotoxicity against human SW620 cells assessed as cell growth at 10^-6 M after 48 hrs by SRB assay relative to control; conditions: SW-620, 48 h, read-out: Activity
[13] = tested on: A549; assay: Cytotoxicity against human A549 cells assessed as cell growth at 10^-6 M after 48 hrs by SRB assay relative to control; conditions: A549, 48 h, read-out: Activity
[14] = tested on: LOX IMVI; assay: Cytotoxicity against human LOXIMVI cells assessed as cell growth at 10^-8 M after 48 hrs by SRB assay relative to control; conditions: read-out: Activity
[15] = Cytotoxicity against human UACC62 cells assessed as cell growth at 10^-4 M after 48 hrs by SRB assay relative to control; conditions: UACC-62, 48 h, read-out: Activity
[16] = tested on: 786-0; assay: Cytotoxicity against human 786-0 cells after 48 hrs by SRB assay; conditions: 786-0, 48 h
[17] = tested on: RXF 393; assay: Cytotoxicity against human RXF393 cells assessed as cell growth at 10^-6 M after 48 hrs by SRB assay relative to control; conditions: RXF 393, 48 h, read-out: Activity
[18] = tested on: A549; assay: Cytotoxicity against human A549 cells assessed as cell growth at 10^-7 M after 48 hrs by SRB assay relative to control; conditions: A549, 48 h, read-out: Activity
[19] = tested on: CAKI-1; assay: Cytotoxicity against human Caki1 cells assessed as cell growth at 10^-8 M after 48 hrs by SRB assay relative to control; conditions: CAKI-1, 48 h, read-out: Activity
[20] = tested on: ACHN; assay: Cytotoxicity against human ACHN cells assessed as cell growth at 10^-7 M after 48 hrs by SRB assay relative to control; conditions: read-out: Activity
[21] = tested on: SN12C; assay: Cytotoxicity against human SN12C cells assessed as cell growth at 10^-8 M after 48 hrs by SRB assay relative to control; conditions: read-out: Activity
[22] = tested on: NCI-H460; assay: Cytotoxicity against human NCI-H460 cells assessed as cell growth at 10^-7 M after 48 hrs by SRB assay relative to control; conditions: NCI-H460, 48 h, read-out: Activity
[23] = Cytotoxicity against human UO31 cells assessed as cell growth at 10^-7 M after 48 hrs by SRB assay relative to control; conditions: UO-31, 48 h, read-out: Activity
[24] = tested on: HT-29; assay: Cytotoxicity against human HT-29 cells assessed as cell growth at 10^-6 M after 48 hrs by SRB assay relative to control; conditions: HT-29, 48 h, read-out: Activity
[25] = tested on: SK-MEL-2; assay: Cytotoxicity against human SK-MEL-2 cells after 48 hrs by SRB assay; conditions: SK-MEL-2, 48 h
[26] = Cytotoxicity against human SKOV3 cells after 48 hrs by SRB assay; conditions: SK-OV-3, 48 h
[27] = tested on: MDA-MB-435; assay: Cytotoxicity against human MDA-MB-435 cells assessed as cell growth at 10^-6 M after 48 hrs by SRB assay relative to control; conditions: MDA-MB-435, 48 h, read-out: Activity
[28] = tested on: HCC 2998; assay: Cytotoxicity against human HCC2998 cells assessed as cell growth at 10^-7 M after 48 hrs by SRB assay relative to control; conditions: HCC 2998, 48 h, read-out: Activity
[29] = tested on: NCI-H460; assay: Cytotoxicity against human NCI-H460 cells assessed as cell growth at 10^-4 M after 48 hrs by SRB assay relative to control; conditions: NCI-H460, 48 h, read-out: Activity
[30] = tested on: ACHN; assay: Cytotoxicity against human ACHN cells after 48 hrs by SRB assay
[31] = Cytotoxicity against human EKVX cells after 48 hrs by SRB assay
[32] = tested on: KM12; assay: Cytotoxicity against human KM12 cells assessed as cell growth at 10^-8 M after 48 hrs by SRB assay relative to control; conditions: KM12, 48 h, read-out: Activity
[33] = Cytotoxicity against human OVCAR8 cells assessed as cell growth at 10^-4 M after 48 hrs by SRB assay relative to control; conditions: OVCAR-8, 48 h, read-out: Activity
[34] = tested on: 786-0; assay: Cytotoxicity against human 786-0 cells assessed as cell growth at 10^-4 M after 48 hrs by SRB assay relative to control; conditions: 786-0, 48 h, read-out: Activity
[35] = Cytotoxicity against human EKVX cells assessed as cell growth at 10^-8 M after 48 hrs by SRB assay relative to control; conditions: read-out: Activity
[36] = tested on: NCI-H322M; assay: Cytotoxicity against human NCI-H322M cells after 48 hrs by SRB assay
[37] = Cytotoxicity against human HCT15 cells after 48 hrs by SRB assay; conditions: HCT-15, 48 h

`COc1ccc(CCN2COc3c([C@@H](C)CCC=C(C)C)ccc(C)c3C2)cc1OC` showed a growth at 0.01 µM [1] of 95%, a growth at 0.1 µM [2] of 92% and a growth at 0.01 µM [3] of 97%. The growth at 100 µM [4] was -92%, the growth at 100 µM [5] was -99% and the GI50 [6] was 10.3 µM. The LC50 [6] was 96.3 µM, the TGI [6] was 31.5 µM and the growth at 0.01 µM [7] was 96%. It also gave a growth at 0.01 µM [8] of 97%, a growth at 0.1 µM [9] of 98% and a growth at 100 µM [10] of -78%. The growth at 0.01 µM [11] was 98%, the growth at 1 µM [12] was 93% and the growth at 1 µM [13] was 95%. For the same compound, the growth at 0.01 µM [14] was 87%, the growth at 100 µM [15] was -99% and the LC50 [16] was 8.72 µM. It also gave a growth at 1 µM [17] of 76%, a growth at 0.1 µM [18] of 96% and a growth at 0.01 µM [19] of 94%. It also gave a growth at 0.1 µM [20] of 94%, a growth at 0.01 µM [21] of 86% and a growth at 0.1 µM [22] of 100%. The growth at 0.1 µM [23] was 92%, the growth at 1 µM [24] was 91% and the GI50 [25] was 1.88 µM. It also gave an LC50 [25] of 7.79 µM, a TGI [25] of 3.82 µM and a GI50 [26] of 11.8 µM. For the same compound, the LC50 (concentration killing 50% of cells) [26] was 81.8 µM, the TGI [26] was 31.1 µM and the growth at 1 µM [27] was 96%. For the same compound, the growth at 0.1 µM [28] was 83%, the growth at 100 µM [29] was -92% and the GI50 [30] was 6.11 µM. It also gave an LC50 (concentration killing 50% of cells) [30] of 48.1 µM, a TGI [30] of 20.2 µM and a GI50 [31] of 5.14 µM. It also gave an LC50 [31] of over 100 µM, a TGI [31] of 25.4 µM and a growth at 0.01 µM [32] of 98%. The growth at 100 µM [33] was -54%, the growth at 100 µM [34] was -100% and the growth at 0.01 µM [35] was 93%. It also gave a GI50 [36] of 3.03 µM, an LC50 [36] of 55.7 µM and a TGI [36] of 11.6 µM. The GI50 [37] was 2.84 µM, the TGI [37] was 10.4 µM and the CC50 ([37]; read-out: LC50 (the source's name)) was 38.2 µM.
